Reference: US12460346B2, “Lactam coated textile” (Conopco, Inc., priority 2018, dated 2025)

Tests used:
P. aeruginosa (PA01) [1] = assay: Pseudomonas PAO1 biofilm inhibition on lactam-based textiles by SEM; assay type: cell-based, Pseudomonas aeruginosa; settings: for Bacteria (pixels): SEM image; for % bacteria coverage: bacteria pixels/total pixels of SEM image
Protocol: P. aeruginosa (PA01) was cultured overnight at 37° C. on TSA plates. Prior to use in tests, colonies were added to 20 mL of brain-heart infusion broth (BHI) containing 5 mL of glass beads and homogenised for 30 seconds. The optical density of the organism was measured and adjusted to give 1×10^8 cfu/mL. Inoculum (0.3 ml) was placed directly on modified and unmodified textiles in 24-well plates and incubated overnight in appropriate broth. Textiles were subsequently removed, washed in PBS and fixed for microscopy.
Fixative was prepared as described (Erlandsen, Kristich, Dunny, Wells, J. Histochem Cytochem, 2004), using 2% para-formaldehyde, 2% gluteraldehyde and 0.15M Sodium Cacodylate and 0.15% Alcian Blue, pH 7.4. The fixative was applied (enough to cover the biofilms) to the wells containing the biofilms on suitable substrates for 2 hours, this varied between 2 and 22 hours.
Following fixation, the fixative solution was removed and 0.15M Sodium Cacodylate buffer was added to the samples. The samples were then stored in the fridge until processing. Samples were washed 3×5 mins with […] fresh buffer to remove any remaining glutaraldehyde. Subsequently, a solution of 1% Osmium tetroxide (OsO4) was prepared 1:1 with 0.15M Sodium Cacodylate buffer, and added to the samples before incubating for 1 hour at room temperature. Samples were rinsed with distilled water 3×10 mins. 0.5% aqueous Uranyl acetate was then added to the samples before incubation in the dark for 30 mins at room temperature.
Samples were then dehydrated in an ascending ethanol series:
Samples were transferred from the original 24-well plate into a petri dish of hexamethyldisilazane (HMDS) for 5 mins, then to a second dish for 5 mins before being placed in a new 24-well plate lined with filter paper. The plate was then placed in a desiccator overnight to allow evaporation and drying or samples.
After sputter coating with gold-palladium in an argon filled chamber, samples were viewed under a JEOL JSM-6400 scanning electron microscope and images were assembled using the Photoshop software.
The SEM images were measured and the amount of pixels of textile and pixels of bacteria were determined. The % of bacteria coverage is the bacteria pixels/total pixels.

C. albicans 3153A = assay: Biofilm growth inhibition on lactam-based acrylic emulsion textiles by viability (AlamarBlue), Candida; assay type: cell-based, Candida albicans; settings: acrylic emulsion coated with lactam, overnight, lower than 100 = reduction in biofilm growth
Protocol: (§1) P. aeruginosa (PA01), S. aureus (Newman's strain) were cultured overnight at 37° C. on TSA 5 plates. C. albicans […] was cultured for 2 days at 30° C. on MEA plates. Prior to use in tests, colonies of each organism were added to 20 mL of brain-heart infusion broth (BHI) containing 5 mL of glass beads and homogenised for 30 seconds. The optical density of each organism was measured and adjusted to give 1×10^7 cfu/mL. Inoculum (0.3 ml) was placed directly on acrylic emulsion coated cotton and PET textiles (with and without lactam) that have been previously positioned inside the wells of 6-well plates and incubated overnight in appropriate broth. Textiles were subsequently removed, washed in PBS and metabolism assessed by AlamarBlue on a plate reader. Data were presented as percentage of no-lactam control. A number lower than 100 indicates a reduction in microorganism biofilm growth for the lactam coated textile compared to uncoated textile.

P. aeruginosa GFP = assay: Pseudomonas Aeruginosa-GFP biofilm growth curve inhibition on lactam-based textiles by fluorescence; assay type: cell-based; settings: lactam in acrylic emulsion binder, printed, or encapsulated and padded on textile; compared to textile without the lactam
Protocol: A fluorescent strain of P. aeruginosa was used to allow growth inhibition to be measured by fluorescence. P. aeruginosa GFP was cultured for 2 days at 30° C. on MEA plates. Prior to use in tests, colonies were added to 20 mL of brain-heart infusion broth (BHI) containing 5 mL of glass beads and homogenised for 30 seconds. The optical density was measured and adjusted to give 1×10^8 cfu/m. Subsequently, 0.5 mL of the strain in BHI broth was added to the wells of a 24 well plate containing the substrates. This was then placed in the plate reader and read every hour at […]. The experiment tested a control (textile without lactam coating, the sample (textile coated with lactam) and a positive control (chlorhexidine).

P. aeruginosa (PA01) [2] = assay: Biofilm growth inhibition on lactam-based acrylic emulsion textiles by viability (AlamarBlue), Pseudomonas; assay type: cell-based, Pseudomonas aeruginosa; settings: for Mean biofilm metabolism (AlamarBlue): acrylic emulsion coated with lactam, overnight, lower than 100 = reduction in biofilm growth
Protocol: as §1

[3] = test system: S. aureus (Newman's strain); assay: Biofilm growth inhibition on lactam-based acrylic emulsion textiles by viability (AlamarBlue), Staphylococcus; assay type: cell-based, Staphylococcus aureus; settings: acrylic emulsion coated with lactam, overnight, lower than 100 = reduction in biofilm growth
Protocol: as §1

With `C=C1C(c2ccc(Cl)cc2)=CC(=O)N1CCC[N+](C)(C)C` [lactam (488) (cationic)] the “Bacteria (pixels)” value (P. aeruginosa (PA01) [1]; fluorinated polypropylene non-woven coated with cationic lactam, control textile 30,880) was 15,864 pixels, the “% bacteria coverage” value (P. aeruginosa (PA01) [1]; fluorinated polypropylene non-woven coated with cationic lactam, control textile 78.0%) was 36.6% and the “% bacteria coverage” value (P. aeruginosa (PA01) [1]; fluorinated polypropylene non-woven coated with cationic lactam, control textile 78.0%, listed as Cationic Lactam) was 36.6%.
In the case of `C=C1NC(=O)C=C1c1ccc(Cl)cc1` [lactam (488), 4-(4-chlorophenyl)-5-methylene-pyrrol-2-one], the “Mean biofilm metabolism (AlamarBlue)” value (C. albicans 3153A; Cotton) is reported as 84.69 percentage of no-lactam control, the “Mean biofilm metabolism (AlamarBlue)” value (C. albicans 3153A; Polyethylene) is reported as 67.83 percentage of no-lactam control and the “Bacteria (pixels)” value (P. aeruginosa (PA01) [1]; polypropylene non-woven coated with lactam in acrylic emulsion, control textile 10,851) is reported as 2,660 pixels. The “% bacteria coverage” value (P. aeruginosa (PA01) [1]; polypropylene non-woven coated with lactam in acrylic emulsion, control textile 32.1%) was 10.1%, the “% bacteria coverage” value (P. aeruginosa (PA01) [1]; polypropylene non-woven coated with lactam in acrylic emulsion, control textile 32.1%, listed as lactam) was 10.1% and the “Bacteria (pixels)” value (P. aeruginosa (PA01) [1]; polypropylene non-woven printed with lactam in solvents, control textile 26,917) was 23,381 pixels. The “% bacteria coverage” value (P. aeruginosa (PA01) [1]; polypropylene non-woven printed with lactam in solvents, control textile 62.6%) was 48.0%, the “% bacteria coverage” value (P. aeruginosa (PA01) [1]; polypropylene non-woven printed with lactam in solvents, control textile 62.6%, listed as lactam) was 48.0% and the “Bacteria (pixels)” value (P. aeruginosa (PA01) [1]; viscose non-woven padded with lactam in polyurea encaps, control textile 16,291) was 1,806 pixels. For the same compound, the “% bacteria coverage” value (P. aeruginosa (PA01) [1]; viscose non-woven padded with lactam in polyurea encaps, control textile 47.8%) was 8.7%, the “% bacteria coverage” value (P. aeruginosa (PA01) [1]; viscose non-woven padded with lactam in polyurea encaps, control textile 47.8%, listed as lactam) was 8.7% and the “Pseudomonas Aeruginosa-GFP biofilm growth on the textile (fluorescence growth curve)” value (P. aeruginosa GFP) was “reduced Pseudomonas Aeruginosa-GFP biofilm growth”. For the same compound, the “Mean biofilm metabolism (AlamarBlue)” value (P. aeruginosa (PA01) [2]; Cotton) was 54.89 percentage of no-lactam control, the “Mean biofilm metabolism (AlamarBlue)” value (P. aeruginosa (PA01) [2]; Polyethylene) was 80.95 percentage of no-lactam control and the “biofilm growth compared to textile with no coating (in words)” value (P. aeruginosa (PA01) [2]; polyethylene and cotton coated with lactam) was “reduction in Pseudomonas Aeruginosa biofilm growth”. The “Mean biofilm metabolism (AlamarBlue)” value ([3]; Cotton) was 33.35 percentage of no-lactam control and the “Mean biofilm metabolism (AlamarBlue)” value ([3]; Polyethylene) was 47.88 percentage of no-lactam control.
